The values that follow come from patent publication US20130131321A1, “LIGANDS FOR ANTIBODY AND Fc-FUSION PROTEIN PURIFICATION BY AFFINITY CHROMATOGRAPHY” (GRAFFINITY PHARMACEUTICALS GMBH, priority 2010, published 2013).

In one data set the test system is Tocilizumab. Briefly: Microtiter plate chromatography of resins, Tocilizumab (bound, yield). The data set is classed as binding, humanized.
In another data set the test system is Tocilicumab. Briefly: SPR screening of chemical microarrays, Tocilizumab. The data set is classed as binding, humanized. The following applies: chemical microarray, immobilized ligand. From the text: (§1) Graffinity has developed high density chemical microarrays comprising thousands of small molecules immobilized onto gold chips. The arrays are constructed using maleimide-thiol coupling chemistry in combination with high density pintool spotting. For the construction, glass plates are microstructured by photolithographical methods in order to define up to 9,216 sensor fields per array. A subsequently applied gold coating provides the basis for the SPR effect and enables the formation of a binary, mixed self assembled monolayer (SAM) of two different thiols. […]
(§2) Surface plasmons are collective oscillations of electrons at a metal surface which can be resonantly excited by polarized light of appropriate wavelength and incidence angle. […] Processes which alter the local refractive index in close proximity to the metal surface (such as antibody binding to the immobilized ligands) can therefore be monitored sensitively. […] While scanning over a range of wavelengths covering the SPR resonance conditions, reflection images are recorded stepwise. […]
(§3) The experimental results of the microarray screening campaigns were analyzed by manual hit selection using in-house developed software routines as well as by an in-depth data analysis by commercially available data mining tools. […]

In data set [1] the test system is Palivizumab. In words: Microtiter plate chromatography of resins, Palivizumab (bound, yield). The format is binding, humanized.
A short description of data set [2]: Alkaline stability in sodium hydroxide, LC-MS. The following applies: 25° C., 8 days. The data set is classed as physicochemical. The method, then:
It was either treated with 0.1 M or 0.5 M sodium hydroxide at 25° C. Hydrolysis was monitored by LC-MS analysis.

Data set [3] relates to Palivizumab. Briefly: SPR screening of chemical microarrays, Palivizumab. The data set is classed as binding, humanized. The following applies: chemical microarray, immobilized ligand.
Description: as §1, §2, §3

A further data set has as its system full length Bevacizumab. Briefly: SPR screening of chemical microarrays, full length Bevacizumab. The format is binding, humanized. The following applies: chemical microarray, immobilized ligand.
Description: as §1, §2, §3

The next data set deals with T1, Bevacizumab (Homo sapiens, UniProt P01857).
T1 construct: fused on or other part: humanised anti-VEGF-A VH domain N-terminal of the gamma-1 constant region (engineered, no UniProt entry)
In words: Langmuir isotherms by batch adsorption. The format is binding, humanized. As to conditions: Bevacizumab in PBS pH 7.3, 25° C., at least 3 h. The method, then: Experiments were performed with Bevacizumab as antibody. Parameters of Langmuir isotherms for purified antibody were determined by batch adsorption experiments in 96-well microtiter plates. In each well, 10 μl of sorbent slurry (50% v/v) were mixed with 100 μl of protein solution. Initial concentrations varied from 0.05-5 mg ml^−1 in phosphate-buffered saline (0.15 M NaCl, 20 mM phosphate buffer, pH 7.3; PBS). Reactions were agitated vigorously at 25° C. for at least 3 h. Afterwards, antibody concentration in the supernatents were measured by Bradford assay.
Parameters of Langmuir isotherms, i.e. dissociation constants Kd and maximum capacities qm, were determined from the measured concentrations in supernatants. Parameters were estimated by numerical fitting of the model equation derived by Chase (4).

A further data set has as its system Bevacizumab Fc fragment. Briefly: Microtiter plate chromatography of resins, Bevacizumab Fc fragment (bound). The format is binding, humanized. The method, then: (§4) Resins were assessed in packed mode by microtiter plate chromatography. For each column, approximately 30 μl of resin were transferred to a 384-well filter plate and sealed with appropriate top frits.
(§5) Columns were equilibrated with 6.7 column volumes (cv) of phosphate buffered saline (0.15 M NaCl, 20 mM sodium phosphate, pH 7.3; PBS) prior to injection. Either 3.3 cv of whole IgGs dissolved at 0.75 mg ml^−1, Fab or Fc fragments dissolved at 0.25 mg ml^−1 (all three in PBS) or host cell proteins (HCP) were injected onto columns. Antibody fragments of Bevacizumab (Fab and Fc) were prepared by cleavage of whole IgG with papain protease (3) according to the protocol of the manufacturer. […] Volumes transferred were spun through columns at 50 g for 1-2 min. During injection of samples, acceleration was reduced to 10 g and centrifugation time increased to 5-10 min. Effluent fractions were collected in 384-well plates and concentrations of protein analyzed by Bradford assay. Protein masses mi, mft and me (see below) were calculated as the product of fraction volume and measured protein concentration.
(§6) The fraction of ‘bound’ protein was calculated as the difference between the total mass of protein injected mi and the mass of protein detected in the flowthrough mft, divided by the total mass of protein injected.
(§7) the fraction of ‘bound’ protein and the ‘yield’ of protein were calculated for each resin based on data for whole IgG-antibodies. In the case of Bevacizumab fragments and host cell proteins, only the fraction of ‘bound’ protein is given. Selectivity of resins was calculated from data for Bevacizumab Whole IgG and host cell proteins. Due to limited experimental precision, selectivity was truncated beyond values of 10.

In the next data set the test system is Bevacizumab Fab fragment. Briefly: Microtiter plate chromatography of resins, Bevacizumab Fab fragment (bound). The format is binding, humanized. The method, then: as §4, §5, §6, §7

By half-life is commonly meant the time needed for the level to fall by half in the phase considered. Low readings indicate rapid decline, high ones slow decline. In the case of `COc1ccc(NC(=O)c2cc(-c3ccco3)n(C)n2)cc1C(=O)NCCCN` [Ligand L1, 5-[5-(2-Furyl)-1-methylpyrazol-3-yl]carboxamido-2-methoxybenzoic acid N-(3-aminopropyl)amide], in the data set with Tocilizumab, the “Tocilizumab Bound (%)” value worked out at 100% and the “Tocilizumab Yield (%)” value was 97%. Moreover, the “SPR binding to full length Tocilicumab” value in the data set on Tocilicumab is listed as “clearly bound”. Moreover, in the data set with Palivizumab [1], the “Palivizumab Bound (%)” value turned out to be 100% and the “Palivizumab Yield (%)” value was found to be 92%. For the same molecule, in [2] (0.1 M NaOH), the “degradation (alkaline stability)” value is listed as “no degradation”. In data set [2] (0.5 M sodium hydroxide solution, 0.5 M NaOH), this molecule had a half-life of 12 days. The “SPR binding to full length Palivizumab” value in the data set on Palivizumab [3] is listed as “clearly bound”. For the same molecule, the “SPR binding to full length Bevacizumab” value in the data set on full length Bevacizumab is listed as “distinct binding”. On Bevacizumab, the “qm (maximum capacity, Langmuir isotherm)” value was 36 mg per ml resin. Also, the “Bevacizumab Fc Bound (%)” value with Bevacizumab Fc fragment (Bevacizumab Fc fragment) was determined as 100%. Moreover, the “binding of Bevacizumab Fc-fragment” value in the data set on Bevacizumab Fc fragment (Fc 0.25 mg ml^-1 in PBS) is recorded as “bound the Fc-fragment”. Also, the “Bevacizumab Fab Bound (%)” value in the data set on Bevacizumab Fab fragment (Bevacizumab Fab fragment) is given as 18%. In addition, in the data set with Bevacizumab Fab fragment (Fab 0.25 mg ml^-1 in PBS), the “binding of Bevacizumab Fab-fragment” value is recorded as “not the Fab-fragment”.
